Where “and” joins values, the source holds several entries; their conditions need not be identical. Equal entries are not always repeated. Where two headings read alike, the source gives them in different places.
Tests used:
[1] = cited from earlier work
in vivo = assay type: in vivo, mice; conditions: mice; for concentration at 5 min / concentration at 15 min / concentration at 30 min / concentration at 60 min / concentration at 120 min / concentration at 240 min / concentration at 360 min / concentration at 480 min / concentration at 1440 min / CSF concentration, Final (individual sample) / Brain concentration, Final (individual sample) / Plasma concentration, Final (individual sample): 10 mg/kg, IP 10 mg/kg

## CCc1nc2c(C)nc(C)cc2n1-c1ccc(CCNC(=O)NS(=O)(=O)c2ccc(C)cc2)cc1 [Grapiprant, reference compound]
[1]
  reported oral bioavailability: 5%
In vivo; male, CD-1, mouse, CSF, ip, CSF, 5 min, mean of 3, read-out: CSF concentration C (mean)
  concentration at 5 min: 9.11 ng/mL
In vivo; male, CD-1, mouse, CSF, ip, CSF, 15 min, individual animals, read-out: CSF concentration, Final (individual sample)
  concentration at 15 min: 1.21 ng/mL
In vivo; male, CD-1, mouse, CSF, ip, CSF, 15 min, mean of 3, read-out: CSF concentration C (mean)
  concentration at 15 min: 1.7 ng/mL
In vivo; male, CD-1, mouse, CSF, ip, CSF, 30 min, mean of 3, read-out: CSF concentration C (mean)
  concentration at 30 min: 3.94 ng/mL
In vivo; male, CD-1, mouse, CSF, ip, CSF, 60 min, mean of 3, read-out: CSF concentration C (mean)
  concentration at 60 min: 0.35 ng/mL
In vivo; male, CD-1, mouse, CSF, ip, CSF, 120 min, mean of 3, read-out: CSF concentration C (mean)
  concentration at 120 min: 1.36 ng/mL
In vivo; male, CD-1, mouse, CSF, ip, CSF, 240 min, individual animals, read-out: CSF concentration, Final (individual sample)
  concentration at 240 min: 0 ng/mL
In vivo; male, CD-1, mouse, CSF, ip, CSF, 240 min, mean of 3, read-out: CSF concentration C (mean)
  concentration at 240 min: 0 ng/mL
In vivo; male, CD-1, mouse, CSF, ip, CSF, 360 min, individual animals, read-out: CSF concentration, Final (individual sample)
  concentration at 360 min: 0 ng/mL
In vivo; male, CD-1, mouse, CSF, ip, CSF, 360 min, mean of 3, read-out: CSF concentration C (mean)
  concentration at 360 min: 0 ng/mL
In vivo; male, CD-1, mouse, CSF, ip, CSF, 480 min, mean of 3, read-out: CSF concentration C (mean)
  concentration at 480 min: 0.4 ng/mL
In vivo; male, CD-1, mouse, CSF, ip, CSF, individual animals, read-out: CSF concentration, Final (individual sample)
  concentration at 1440 min: 0 ng/mL
In vivo; male, CD-1, mouse, CSF, ip, CSF, mean of 3, read-out: CSF concentration C (mean)
  concentration at 1440 min: 0 ng/mL
In vivo; male, CD-1, mouse, brain, ip, brain, 5 min, individual animals, read-out: Brain concentration, Final (individual sample)
  concentration at 5 min: 20.4 ng/g
In vivo; male, CD-1, mouse, brain, ip, brain, 5 min, mean of 3, read-out: Brain concentration C (mean)
  concentration at 5 min: 21.9 ng/g
In vivo; male, CD-1, mouse, brain, ip, brain, 15 min, mean of 3, read-out: Brain concentration C (mean)
  concentration at 15 min: 14.9 ng/g
In vivo; male, CD-1, mouse, brain, ip, brain, 30 min, individual animals, read-out: Brain concentration, Final (individual sample)
  concentration at 30 min: 11.3 ng/g
In vivo; male, CD-1, mouse, brain, ip, brain, 30 min, mean of 3, read-out: Brain concentration C (mean)
  concentration at 30 min: 11.1 ng/g
In vivo; male, CD-1, mouse, brain, ip, brain, 60 min, mean of 3, read-out: Brain concentration C (mean)
  concentration at 60 min: 6.66 ng/g
In vivo; male, CD-1, mouse, brain, ip, brain, 120 min, individual animals, read-out: Brain concentration, Final (individual sample)
  concentration at 120 min: 0 ng/g
In vivo; male, CD-1, mouse, brain, ip, brain, 120 min, mean of 3, read-out: Brain concentration C (mean)
  concentration at 120 min: 0 ng/g
In vivo; male, CD-1, mouse, brain, ip, brain, 240 min, individual animals, read-out: Brain concentration, Final (individual sample)
  concentration at 240 min: 0 ng/g
In vivo; male, CD-1, mouse, brain, ip, brain, 240 min, mean of 3, read-out: Brain concentration C (mean)
  concentration at 240 min: 0 ng/g
In vivo; male, CD-1, mouse, brain, ip, brain, 360 min, individual animals, read-out: Brain concentration, Final (individual sample)
  concentration at 360 min: 0 ng/g
In vivo; male, CD-1, mouse, brain, ip, brain, 360 min, mean of 3, read-out: Brain concentration C (mean)
  concentration at 360 min: 0 ng/g
In vivo; male, CD-1, mouse, brain, ip, brain, 480 min, individual animals, read-out: Brain concentration, Final (individual sample)
  concentration at 480 min: 0 ng/g
In vivo; male, CD-1, mouse, brain, ip, brain, 480 min, mean of 3, read-out: Brain concentration C (mean)
  concentration at 480 min: 0 ng/g
In vivo; male, CD-1, mouse, brain, ip, brain, individual animals, read-out: Brain concentration, Final (individual sample)
  concentration at 1440 min: 0 ng/g
In vivo; male, CD-1, mouse, brain, ip, brain, mean of 3, read-out: Brain concentration C (mean)
  concentration at 1440 min: 0 ng/g
In vivo; male, CD-1, mouse, plasma, ip, plasma, 5 min, individual animals, read-out: Plasma concentration, Final (individual sample)
  concentration at 5 min: 546 ng/mL
In vivo; male, CD-1, mouse, plasma, ip, plasma, 5 min, mean of 3, read-out: Plasma concentration C (mean)
  concentration at 5 min: 609 ng/mL
In vivo; male, CD-1, mouse, plasma, ip, plasma, 15 min, mean of 3, read-out: Plasma concentration C (mean)
  concentration at 15 min: 834 ng/mL
In vivo; male, CD-1, mouse, plasma, ip, plasma, 30 min, mean of 3, read-out: Plasma concentration C (mean)
  concentration at 30 min: 734 ng/mL
In vivo; male, CD-1, mouse, plasma, ip, plasma, 60 min, mean of 3, read-out: Plasma concentration C (mean)
  concentration at 60 min: 393 ng/mL
In vivo; male, CD-1, mouse, plasma, ip, plasma, 120 min, mean of 3, read-out: Plasma concentration C (mean)
  concentration at 120 min: 304 ng/mL
In vivo; male, CD-1, mouse, plasma, ip, plasma, 240 min, mean of 3, read-out: Plasma concentration C (mean)
  concentration at 240 min: 31.1 ng/mL
In vivo; male, CD-1, mouse, plasma, ip, plasma, 360 min, mean of 3, read-out: Plasma concentration C (mean)
  concentration at 360 min: 11.2 ng/mL
In vivo; male, CD-1, mouse, plasma, ip, plasma, 480 min, individual animals, read-out: Plasma concentration, Final (individual sample)
  concentration at 480 min: 0 ng/mL
In vivo; male, CD-1, mouse, plasma, ip, plasma, 480 min, mean of 3, read-out: Plasma concentration C (mean)
  concentration at 480 min: 0 ng/mL
In vivo; male, CD-1, mouse, plasma, ip, plasma, individual animals, read-out: Plasma concentration, Final (individual sample)
  concentration at 1440 min: 0 ng/mL
In vivo; male, CD-1, mouse, plasma, ip, plasma, mean of 3, read-out: Plasma concentration C (mean)
  concentration at 1440 min: 0 ng/mL
In vivo; male, CD-1, mouse, plasma, ip, 10 mg/kg i.p.
  Cmax: 834 ng/mL
In vivo; male, CD-1, mouse, plasma, ip, 10 mg/kg i.p., read-out: plasma AUC (converted)
  AUC: 1340 ng·h/mL
In vivo; CSF, 5 min, individual animals
  CSF concentration, Final (individual sample): 0 ng/mL and 11.4 ng/mL and 16.0 ng/mL
In vivo; CSF, 15 min, individual animals
  CSF concentration, Final (individual sample): 2.26 ng/mL and 1.62 ng/mL
In vivo; CSF, 30 min, individual animals
  CSF concentration, Final (individual sample): 2.31 ng/mL and 1.36 ng/mL and 8.16 ng/mL
In vivo; CSF, 60 min, individual animals
  CSF concentration, Final (individual sample): 1.05 ng/mL and 0 ng/mL
In vivo; CSF, 120 min, individual animals
  CSF concentration, Final (individual sample): 4.07 ng/mL and 0 ng/mL
In vivo; CSF, 480 min, individual animals
  CSF concentration, Final (individual sample): 1.20 ng/mL and 0 ng/mL
In vivo; brain, 5 min, individual animals
  Brain concentration, Final (individual sample): 29.4 ng/g and 15.9 ng/g
In vivo; brain, 15 min, individual animals
  Brain concentration, Final (individual sample): 15.1 ng/g and 20.3 ng/g and 9.28 ng/g
In vivo; brain, 30 min, individual animals
  Brain concentration, Final (individual sample): 9.04 ng/g and 12.8 ng/g
In vivo; brain, 60 min, individual animals
  Brain concentration, Final (individual sample): 7.24 ng/g and 0 ng/g and 12.8 ng/g
In vivo; plasma, 5 min, individual animals
  Plasma concentration, Final (individual sample): 525 ng/mL and 757 ng/mL
In vivo; plasma, 15 min, individual animals
  Plasma concentration, Final (individual sample): 1131 ng/mL and 825 ng/mL and 545 ng/mL
In vivo; plasma, 30 min, individual animals
  Plasma concentration, Final (individual sample): 543 ng/mL and 519 ng/mL and 1140 ng/mL
In vivo; plasma, 60 min, individual animals
  Plasma concentration, Final (individual sample): 539 ng/mL and 0 ng/mL and 640 ng/mL
In vivo; plasma, 120 min, individual animals
  Plasma concentration, Final (individual sample): 446 ng/mL and 153 ng/mL and 313 ng/mL
In vivo; plasma, 240 min, individual animals
  Plasma concentration, Final (individual sample): 33.6 ng/mL and 42.0 ng/mL and 17.7 ng/mL
In vivo; plasma, 360 min, individual animals
  Plasma concentration, Final (individual sample): 0 ng/mL and 34 ng/mL
